Source: patent publication US7998492B2, “Methods and products related to treatment and prevention of hepatitis C virus infection” (Coley Pharmaceutical Group, Inc., priority 2002, dated 2011)
“Also recorded” adds a separate entry of the source.

Columns and labels:
[1] = test system: PBMCs from normal or HCV infected subjects; assay: IFN-α secretion by PBMC with Intron A, Ribavirin or CpG alone or in combination (ELISA); type: cell-based, human
Excerpt: (§1) All oligonucleotide stocks were resuspended in TE buffer at pH 8.0 (OmniPer®; EM Science, Gibbstown, N.J.). Dilutions of various ODNs were made in RPMI 1640 complete media (Gibco BRL, Grand Island, N.Y.) containing 10% heat inactivated, normal human AB serum (Wisent Inc, St. Bruno, QC) and 1% penicillin/streptomycin (Gibco BRL, Grand Island, N.Y.) just prior to their use in cell assays. For the exogenous IFN-α synergy experiments, Intron A (Interferon Alfa-2b, DIN 02223406, Schering Canada Inc., Pointe-Claire, Quebec, Canada) was added to the ODN solutions to give final concentrations of 125 or 1000 IU/ml. Ribavirin (CAS 36791-04-5, Calbiochem, CN Biosciences Inc., La Jolla, Calif., USA) was reconstituted with sterile distilled water to produce a 500 μm stock and diluted in media as described above, to give a final concentration of 5 μm in wells. Cells were incubated at 37° C. with 5% CO2. After 48 h, cell supernatants were collected from each well and frozen at −80° C.
(§2) Peripheral blood mononuclear cells (PBMCs) were purified by centrifugation over Ficoll-Hypaque (Amersham Pharmacia Biotech, Uppsala, Sweden) at 400×g for, 35 min. Cells were resuspended at a concentration of 10×10^6/ml in RPMI complete media containing 10% normal human AB serum (heat inactivated) and 1% penicillin/streptomycin.
(§3) Freshly isolated PBMCs were resuspended at 10×10^6/ml (2× final concentration) and 100 μl of cells were added to each well of a 96 well flat-bottom plate containing an equal volume of ODN solution (2× final desired concentration). A range of concentrations (1, 3, 6 μg/ml) was tested for each ODN. Cells were incubated at 37° C. with 5% CO2. After 48 h, cell supernatants were collected from each well and frozen at −80° C. until assayed.
(§4) IFN-α, IP-10, IL-10 and IFN-levels in supernatants were measured using commercial ELISA Kits (R&D Systems, Minneapolis, Minn., USA; IP-10, Cat# DIP 100, IL-10, Cat# D1000, IFN-g Cat# DIF50 or PBL Biomedical, IFN-α Cat# 4110S). When measured ELISA values were below the detection limit of the kit as specified by the manufacturer, a value equal to the lowest detectable limit was entered into data tables.

[2] = test system: PBMCs from normal or HCV-infected subjects; assay: IFN-γ secretion by PBMC after 48 h with CpG ODN (ELISA); type: cell-based, human; conditions: HCV-infected and normal PBMCs similar, FIG. 5/6
Procedure: as §2, §3, §4

[3] = test system: B cells in PBMCs from HCV-infected or normal donors; assay: B-cell proliferation (3H-thymidine, stimulation index); type: cell-based, human; conditions: HCV-infected and normal populations, 5 days, FIGS. 8 and 9
Procedure: as §2
Cells were isolated as described above and resuspended at 1×10^6/ml in complete RPMI media 100 μl of cells were added to each well of round-bottom 96 well plates. ODN solutions (100 μl) were added to wells to give the selected range of final concentrations (1, 3, 6 μg/ml). Cells were cultured for 5 days and then pulsed with ^3H-Thymidine (1 μCi/well) for 18 h, before harvesting onto filter paper for measuring radioactivity. Results are reported as stimulation index (SI) with respect to untreated media control.

[4] = test system: PBMCs from HCV-infected subjects; assay: IFN-α secretion by PBMC from HCV chronic carriers after 48 h with CpG ODN (ELISA); type: cell-based, human; conditions: for R, linear regression of number of pDC against amount of IFN-α secreted: HCV infected subjects, pDC number by FACS; for IFN-α secretion level: PBMC from HCV chronic carriers, 48 h, FIG. 1/3/4
Excerpt: as §1, §2, §3, §4

[5] = test system: PBMCs from normal subjects; assay: IFN-α secretion by PBMC from normal subjects after 48 h with CpG ODN (ELISA); type: cell-based, human; conditions: for IFN-α secretion level: PBMC from normal volunteers, 48 h, FIG. 1/3; for R, linear regression of number of pDC against amount of IFN-α secreted: normal subjects, pDC number by FACS
Excerpt: as §1, §2, §3, §4

[6] = test system: PBMCs from normal or HCV-infected subjects; assay: IP-10 secretion by PBMC after 48 h with CpG ODN (ELISA); type: cell-based, human; conditions: similar in normal subjects and HCV chronic carriers, FIG. 7
Procedure: as §2, §3, §4

[7] = adjuvant to a commercial hepatitis B vaccine, phase I/II; cited from earlier work

Row | Molecule | induction of IFN-α secretion ([1]; HCV-infected PBMCs, on their own or together, FIG. 11) | induction of IFN-α secretion ([1]; PBMCs from normal or HCV infected subjects, alone or in combination) | effect on the efficacy of CpG ([1]; combined with CpG ODN) | immunostimulatory activity ([1]; human PBMCs) | endogenous IFN-α production ([1]; in combination with Intron A) | IFN-γ secretion level [2] | B cell stimulation [3] | R, linear regression of number of pDC against amount of IFN-α secreted [4] | IFN-α secretion level ([4]; listed as C) | synergy with exogenous IFN-α for IFN-α secretion ([1]; PBMCs from HCV infected subjects, combination with Intron-A) | IFN-α secretion level [5] | R, linear regression of number of pDC against amount of IFN-α secreted [5] | IP-10 secretion level [6] | IFN-α induced relative to the normal level ([4]; HCV chronic carrier PBMC versus normal PBMC, FIG. 1) | IFN-α secretion level [4] | function as vaccine adjuvant [7] | IFN-α secretion level ([4]; listed as B) | IFN-α secretion level ([4]; listed as Class B)
1 | NC(=O)c1ncn([C@@H]2O[C@H](CO)[C@@H](O)[C@H]2O)n1 [Ribavirin] | Neither Ribavirin nor Intron A, on their own or together, resulted in the induction of IFN-α secretion | Neither commercial Intron-A (IFN-α-2b) nor Ribavirin, alone or in combination, were capable of inducing IFN-α secretion | reduced the efficacy of CpG | no immunostimulatory activity | did not enhance endogenous IFN-α production |  |  |  |  |  |  |  |  |  |  |  |  | 
2 | TCGTCGTTTTCGGCGGCCGCCG (chemistry not given here) [SEQ ID NO. 4, C class CpG ODN] |  |  |  |  |  | high concentrations | strongly activated B cells | 0.08 | the same as those obtained with the normal PBMCs; also recorded: higher levels | synergy | moderately high levels | 0.58 | next highest |  |  |  |  | 
3 | G-G-GGACGACGTCGTGG-G-G-G-G-G (DNA GGGGACGACGTCGTGGGGGGG; chemistry not given here) [SEQ ID NO. 1, A class CpG ODN] |  |  |  |  |  | low levels | poor stimulator of B cells | 0.02 |  |  | very high levels | 0.43 | Highest levels | about 50% | higher levels |  |  | 
4 | TCGTCGTTTTGTCGTTTTGTCGTT [SEQ ID NO. 2] |  |  |  |  |  | moderate amounts | strongly activated B cells |  |  |  | only low levels |  | lowest |  |  | functions well as a vaccine adjuvant | the same as those obtained with the normal PBMCs | lower levels
